For data set [1], the system named is wild-type red mold strain GZ3639. Put plainly: Inhibition of spore germination / reactive oxygen species generation through NOX enzyme inhibition in red mold. The data set is classed as cell-based. The conditions noted are these: 24 h, read-out: IC50 (µM), compound concentration at which the spore germination inhibition rate was 50%. How it is done: When NADPH oxidase (NOX), which is involved in the generation of reactive oxygen species in red mold, is inhibited, normal mycelial growth is inhibited, abnormal form of monocyclic conidia is formed, and germination is inhibited. The abnormal phenotype caused by the reduction of reactive oxygen species in red mold can be easily observed under an optical microscope. Through this, the ability to inhibit generation of reactive oxygen species through NOX inhibition was evaluated.
Specifically, for the evaluation of compound activity, 0.1 mM of the compound was added to a minimum medium (MM20) spore suspension diluted to ⅕. Spores ([…]) of wild-type red mold strain GZ3639 were inoculated into the medium and cultured at 25° C. for 24 h, followed by microscopic observation. Compounds having a germination inhibition rate and microcycle conidiation to be 50% or more of those in normal germination were selected, and their activities were evaluated at concentrations of 50 µM, 25 µM, and 10 µM. At this time, the activity of substances having a germination inhibition rate of 95% at 10 µM was further evaluated at concentrations of 5 µM, 1 µM, 0.5 µM, and 0.1 µM. Based on the result of this evaluation, the compound concentration (inhibitory concentration 50%, IC50) at which the spore germination inhibition rate was 50% was determined.

Data set [2] can be described thus: in vivo. More on the design: species or system SD rats. The following applies: SD, rat, po. How it is done:
The bioavailability (BA) and pharmacokinetic properties of the compounds of the present invention were evaluated in an animal model. The compounds were administered to 8-week-old SD rats (300 to 350 g) at a dose of 2 to 5 mg/kg through oral and intravenous administration routes. After administration, blood was collected at regular time intervals and the time course of blood concentration was analyzed.

A short description of data set [3]: Single acute toxicity evaluation 2 (2000 mg/kg oral). The data set is classed as in vivo, ICR mice. How it is done: Acute toxicity properties after single administration of the compounds of the present invention were evaluated in an animal model.
For data set [4], the system named is substantia nigra dopaminergic neurons. Nature of the data set: Inhibition of dopaminergic nerve cell death in MPTP animal model of Parkinson's disease (tyrosine hydroxylase immunostaining). In kind it is in vivo, C57B16/J mice. The following applies: Evaluations 3 and 4: intraperitoneal 5 mg/kg, 1 week before and after MPTP. How it is done:
The dopaminergic neuronal cell protecting effect of the compound of the present invention was evaluated in an animal model of Parkinson’s disease. The animal model used was 7-week-old C57B16/J mice (23 to 25 g), to which MPTP (15 mg/kg) was administered 4 times at 1.5 hour intervals. For 1 to 2 days after administration, behavior was noticeably slowed and gradually recovered. In 1 week after MPTP administration, behavior was almost normalized to a level similar to that of normal mice.
In order to evaluate the efficacy of the compounds of the present invention, Compounds 1aaa (Compound 1), lace (Compound 27), 1ahe (Compound 44) and 1aje (Compound 62) were each administered at a dose of 5 mg/kg for 1 week, then MPTP (15 mg/kg x 4 times) was injected. These compounds were additionally administered for 1 week, and then dopamine innervation in the substantia nigra region was analyzed through immunostaining.
Specifically, selegiline, 1aaa, lace, 1ahe, 1aje, and apocynin were administered at a dose of 5 mg/kg for 7 days, then MPTP (15 mg/kg x 4 times) was administered to induce damage to dopaminergic neurons. After 7 days of additional administration of the compounds at the same dose, the animals were sacrificed. Immunostaining was performed using tyrosine hydroxylase antibody to measure the survival rate of substantia nigra dopaminergic neurons. After immunostaining, the number of surviving dopaminergic neurons was analyzed. The results are illustrated in FIG. 8.
In order to evaluate the efficacy of the compounds of the present invention, Compounds 1abv (Compound 22), 1abw (Compound 23), and 1ahs (Compound 52) were each intraperitoneally administered at a dose of 5 mg/kg for 1 week or orally administered at a dose of 50 mg/kg, then MPTP (15 mg/kg x 4 times) was injected. These compounds were additionally administered for 1 week, and then dopamine innervation in the substantia nigra region was analyzed through immunostaining. The results are illustrated in FIG. 9.
In order to evaluate the dopaminergic neuroprotective effect of the compounds of the present invention, Compounds 1aja (Compound 59) and 1abk (Compound 17) were each intraperitoneally administered at a dose of 5 mg/kg for 1 week, then MPTP (15 mg/kg x 4 times) was injected. These compounds were additionally administered for 1 week. After immunostaining using brain slices from each group, surviving dopaminergic neurons were photographed under a microscope and analyzed. The results are illustrated in FIG. 10.
In order to evaluate the dopaminergic neuroprotective effect of the compounds of the present invention, Compounds 1ajs (Compound 63), 1ajy (Compound 67), and 1aqj (Compound 85) were each intraperitoneally administered at a dose of 5 mg/kg for 1 week, then MPTP (15 mg/kg x 4 times) was injected. These compounds were additionally administered for 1 week. After immunostaining using brain slices from each group, surviving dopaminergic neurons were photographed under a microscope and analyzed. The results are illustrated in FIG. 11.

The term bioavailability denotes the share of a dose that reaches the circulation, judged against a reference dose that is usually intravenous. Low values mean poor availability, high ones good availability. With `CCc1ccc(N2C(=O)/C(=C\c3cc(O)cc(O)c3)N(C)C2=[Se])cc1` [Compound 27, 5-(3,5-dihydroxybenzylidene)-3-(4-ethylphenyl)-1-methyl-2-selenoxoimidazolidine-4-on], the IC50 in data set [1] was found to be 9 µM. The molecule further displayed a bioavailability in data set [2] of 31%.

As for `CN1C(=[Se])N(c2ccccc2)C(=O)/C1=C\c1ccc(O)cc1O` [Compound 1, 5-(2,4-dihydroxybenzylidene)-1-methyl-3-phenyl-2-selenoxoimidazolidine-4-on], the IC50 in data set [1] amounted to 20 µM. For the same molecule, in data set [2], the bioavailability came out at 13%. With `CN1C(=[Se])N(CCCN2CCOCC2)C(=O)C1=Cc1ccc(Cl)cc1` [Compound 1aqj], the “change in body weight” value in data set [3] (day 0) stood at 100; in data set [3] (day 2) it was 94.6; in data set [3] (day 4) it was 99.8; in data set [3] (day 8), 104.8; in data set [3] (day 10), 105.9; in data set [3] (day 14) it was 106.6. The “survival rate of dopaminergic neurons, of that in the control group” value (from here on “survival rate of dopaminergic neurons”) in data set [4] was found to be 75.1%. With `Cc1ccc(N2C(=O)/C(=C\c3ccc(N4CCCCC4)cc3)N(C)C2=[Se])cc1` [Compound 15, 1-methyl-5-(4-piperidine-1-yl)benzylidene-3-(4-tolyl)-2-selenoxoimidazolidine-4-on], the IC50 in data set [1] is 11 µM. The molecule further showed a bioavailability in data set [2] of 11%. For `Cc1ccc(N2C(=O)/C(=C\c3ccc(N4CCN(CCO)CC4)cc3)N(C)C2=[Se])cc1` [Compound 21, 5-(4-(4-(2-hydroxyethyl)piperazine-1-yl)benzylidene)-1-methyl-2-selenoxo-3-(4-tolyl)imidazoline-4-on], in data set [2], the bioavailability was found to be 11%.

`Cc1ccc(N2C(=O)C(=Cc3ccc(N4CCCC4)cc3)N(C)C2=[Se])cc1` [Compound 1abk, 1-methyl-5-(4-pyrrolidine-1-yl)benzylidene-2-selenoxo-3-(4-tolyl)imidazolidine-4-on]: in data set [4], the “survival rate of dopaminergic neurons” value was 66%. For the molecule `CCCCCCN1C(=O)C(=Cc2ccc(O)cc2O)N(C)C1=[Se]` [Compound 1aja], the “change in body weight” value in data set [3] (day 0) was found to be 100; in data set [3] (day 2), 95.6; in data set [3] (day 4), 102.8; in data set [3] (day 8), 105.8; in data set [3] (day 10), 107.8; in data set [3] (day 14) it was 107.6. Moreover, the “survival rate of dopaminergic neurons” value in data set [4] is given as 76%. As to `Cc1ccc(N2C(=O)/C(=C\c3ccc(Br)cc3)N(C)C2=[Se])cc1` [Compound 16, 5-(4-bromobenzylidene)-1-methyl-2-selenoxo-3-(4-tolyl)imidazolidine-4-on], in data set [1], the IC50 was 46 µM. On to `CN1C(=[Se])N(c2ccccc2)C(=O)/C1=C\c1cccnc1` [Compound 9, 1-methyl-3-phenyl-5-(pyridine-3-ylmethylene)-2-selenoxoimidazolidine-4-on], for which the IC50 in data set [1] came to 37 µM. Take `CN1C(=[Se])N(CCc2ccccc2)C(=O)/C1=C\c1ccc(N(C)C)cc1` [Compound 43, 5-(4-(dimethylamino)benzylidene)-1-methyl-3-phenethyl-2-selenoxoimidazolidine-4-on]: the IC50 in data set [1] was determined as 23 µM. For the molecule `CCCCCCN1C(=O)/C(=C\c2ccc(N(C)C)cc2)N(C)C1=[Se]` [Compound 61, 5-(4-(dimethylamino)benzylidene)-3-hexyl-1-methyl-2-selenoxoimidazolidine-4-on], the IC50 in data set [1] amounted to 33 µM. Same read-out and setting: the value for `CN1C(=[Se])N(CCc2ccccc2)C(=O)/C1=C\c1ccc(O)cc1O` [Compound 41, 5-(2,4-dihydroxybenzylidene)-1-methyl-3-phenethyl-2-selenoxoimidazolidine-4-on] was 9.8 µM. The same measure, in the same setting: with `O=C1/C(=C\c2ccc(O)c(O)c2)N(Cc2ccccc2)C(=[Se])N1c1ccccc1` [Compound 106, 1-benzyl-5-(3,4-dihydroxybenzylidene)-3-phenyl-2-selenoxoimidazolidine-4-on] the figure was 34 µM; with `CCc1ccc(N2C(=O)/C(=C\c3ccc(N4CCCC4)cc3)N(CC)C2=[Se])cc1` [Compound 102, 1-ethyl-3-(4-ethylphenyl)-5-(4-pyrrolidine-1-yl)benzylidene-2-selenoxoimidazolidine-4-on], 40 µM; with `CN1C(=[Se])N(c2cccc(Cl)c2)C(=O)/C1=C\c1cccc(O)c1O` [Compound 40, 3-(3-chlorophenyl)-5-(2,3-dihydroxybenzylidene)-1-methyl-2-selenoxoimidazolidine-4-on], 42 µM.

Turning to `CN1C(=[Se])N(CCc2ccccc2)C(=O)C1=Cc1ccc(N2CCOCC2)cc1` [Compound 1ahs], the “change in body weight” value in data set [3] (day 0) was determined as 100; in data set [3] (day 2), 97.6; in data set [3] (day 4) it was 100.0; in data set [3] (day 8) it was 103.8; in data set [3] (day 10) it was 104.5; in data set [3] (day 14), 105.0. As to `Cc1ccc(N2C(=O)/C(=C\c3ccc(NCCN4CCOCC4)cc3)N(C)C2=[Se])cc1` [Compound 23, 1-methyl-5-(4-((2-morpholinoethyl)amino)benzylidene)-2-selenoxo-3-(4-tolyl)imidazolidine-4-on], the IC50 in data set [1] was determined as 5.2 µM. For `CN1C(=[Se])N(C2CCCC2)C(=O)/C1=C\c1ccc(O)cc1O` [Compound 68, 3-cyclopentyl-5-(2,4-dihydroxybenzylidene)-1-methyl-2-selenoxoimidazolidine-4-on], the IC50 in data set [1] is 3 µM. Take `CN1C(=[Se])N(c2ccc(Cl)cc2)C(=O)/C1=C\c1ccc(O)cc1O` [Compound 35, 3-(4-chlorophenyl)-5-(2,4-dihydroxybenzylidene)-1-methyl-2-selenoxoimidazolidine-4-on]: the IC50 in data set [1] turned out to be 31 µM. With `Cc1ccc(N2C(=O)/C(=C\c3ccc(O)cc3)N(C)C2=[Se])cc1` [Compound 18, 5-(4-hydroxybenzylidene)-1-methyl-2-selenoxo-3-(4-tolyl)imidazolidine-4-on], the IC50 in data set [1] came out at 13 µM.

As for `CN1C(=[Se])N(CCCCCCF)C(=O)/C1=C\c1cc(O)cc(O)c1` [Compound 88], the IC50 in data set [1] stood at 18 µM. Turning to `CN1C(=[Se])N(c2ccccc2)C(=O)/C1=C\c1cccc(O)c1` [Compound 8, 5-(3-hydroxybenzylidene)-1-methyl-3-phenyl-2-selenoxoimidazolidine-4-on], in data set [1], the IC50 is 41 µM.

Consider `CN1C(=[Se])N(c2ccccc2)C(=O)/C1=C\c1ccc(N2CCCC2)cc1` [Compound 7, 1-methyl-3-phenyl-5-(4-pyrrolidine-1-yl)benzylidene-2-selenoxoimidazolidine-4-on], for which the IC50 in data set [1] came to 16 µM.

In the case of `CN1C(=[Se])N(C2CCCC2)C(=O)/C1=C\c1ccc(O)c(O)c1` [Compound 71, 3-cyclopentyl-5-(3,4-dihydroxybenzylidene)-1-methyl-2-selenoxoimidazolidine-4-on], the IC50 in data set [1] worked out at 26 µM.

(Values after US20230286956A1 (DUKSUNG WOMEN'S UNIVERSITY INDUSTRY-ACADEMIC COOPERATION …, priority 2020, published 2023).)
